Columns and labels:
Aβ (1-42) fibril = Aβ (1-42) fibril (Homo sapiens, UniProt P05067); assay: in vitro sink-like Aβ assay: Aβ dissolved from fibril in presence of compound, Aβ ELISA of supernatant; format: biochemical; conditions: Aβ (1-42) fibril pellets, PBS containing compound, 37° C. for one day, supernatant by Aβ ELISA; control (PBS without compound) = 1
Protocol: Sandwich ELISA for Aβ (1-40) and Aβ (1-42) was performed using an Aβ (1-40) ELISA kit and Aβ (1-42) ELISA kit (Biosoure, IBL, Signet Laboratories and the like). […] The peptide was incubated for several days at 37° C. until fibrillization was completed. After centrifugation at 22° C. (15,000×g, 10 min), the supernatant was removed. The obtained pellets were gradually and carefully washed 3 times with PBS. Fresh PBS (20 μl) was carefully and gradually added to the pellets. The sample was incubated at 37° C. for one day. After centrifugation (15,000×g, 10 min) at 22° C., the supernatant was removed. […] The sample was incubated at 37° C. for one day.

tau = conditions: Taniguchi et al., J Biol Chem 2005; cited from earlier work
Aβ = conditions: in vitro; Ono, Biochim Biophys Acta 2004; cited from earlier work
[1] = system: protease-resistant protein (PrP-res); conditions: cited from earlier work

Sequence of Aβ (1-42) fibril (P05067 672-713): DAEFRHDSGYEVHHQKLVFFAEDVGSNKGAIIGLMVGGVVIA

Compound	average (ratio of Aβ dissolved from fibril when the control is 1) (Aβ (1-42) fibril)	inhibition of tau filament formation (tau)	inhibitory action on the formation or elongation of Aβ (Aβ)	inhibition of formation of protease-resistant protein (PrP-res) [1]
CNc1ccc2nc3ccc(=[N+](C)C)cc-3sc2c1.[Cl-] [azure B]	2.1701	inhibit tau filament formation		
CCN(CCO)c1ccc(/N=N/c2sc3cc(OC)ccc3[n+]2C)cc1 [basic blue 41]	2.299			
COc1cc(/C=C/C(=O)CC(=O)/C=C/c2ccc(O)c(OC)c2)ccc1O [curcumin]	2.4691			
O=c1c(O)c(-c2cc(O)c(O)c(O)c2)oc2cc(O)cc(O)c12 [myricetin]	1.3196		in vitro inhibitory action on the formation or elongation of Aβ	
O=C(OC[C@H]1O[C@@H](OC(=O)c2cc(O)c(O)c(OC(=O)c3cc(O)c(O)c(O)c3)c2)[C@H](OC(=O)c2cc(O)c(O)c(OC(=O)c3cc(O)c(O)c(O)c3)c2)[C@@H](OC(=O)c2cc(O)c(O)c(OC(=O)c3cc(O)c(O)c(O)c3)c2)[C@@H]1OC(=O)c1cc(O)c(O)c(OC(=O)c2cc(O)c(O)c(O)c2)c1)c1cc(O)c(O)c(OC(=O)c2cc(O)c(O)c(O)c2)c1 [tannic acid]	1.3969		in vitro inhibitory action on the formation or elongation of Aβ	
ferric dehydroporphyrin IX	1.4124	inhibits tau filament formation		inhibit in vitro the formation of a protease-resistant protein (PrP-res)

From patent US20090087916A1, “Assay method for identifying drug candidate” (AnGesMG, Inc., priority 2004, published 2009)
